doi:10.1101/2025.05.22.655619v4 (bioRxiv, 2025)
Residues, ends and D or L forms follow the SMILES beside them.

Tests used:
defibrinated sheep blood = assay: Hemolysis assay; format: cell-based; details: for Hemo/MIC = (< 20% Hemo) / MIC Ec: MICs >50 µM treated as 100 µM, >200 µM treated as 200 µM
E. coli (ATCC 25922) = assay: Antimicrobial susceptibility testing; format: cell-based, Escherichia coli; details: summary values

Compound	Fold Δ = (Hemo/MIC of compound) / (Hemo/MIC of LL-37) (defibrinated sheep blood; Figure 6C)	Hemo/MIC = (< 20% Hemo) / MIC Ec (defibrinated sheep blood; Figure 6C)	MIC against E. coli as stated in the text and in the table of contents graphic (E. coli (ATCC 25922)) [µM]	Fold Δ = (Hemo/MIC of compound) / (Hemo/MIC of LL-37) (defibrinated sheep blood; Figure 1B)	further results
CC[C@H](C)[C@H](NC(=O)[C@H](CCCCN)NC(=O)[C@H](CCC(=O)O)NC(=O)[C@H](CCCCN)NC(=O)[C@H](CO)NC(=O)[C@H](CCCCN)NC(=O)[C@H](CCCNC(=N)N)NC(=O)[C@H](Cc1ccccc1)NC(=O)[C@H](Cc1ccccc1)NC(=O)[C@H](CC(=O)O)NC(=O)CNC(=O)[C@H](CC(C)C)NC(=O)[C@@H](N)CC(C)C)C(=O)NCC(=O)N[C@@H](CCCCN)C(=O)N[C@@H](Cc1ccccc1)C(=O)N[C@@H](Cc1ccccc1)C(=O)N[C@@H](CCCCN)C(=O)N[C@@H](CCCNC(=N)N)C(=O)N[C@H](C(=O)N[C@H](C(=O)N[C@@H](CCC(N)=O)C(=O)N[C@@H](CCCNC(=N)N)C(=O)N[C@H](C(=O)N[C@@H](CCCCN)C(=O)O)[C@@H](C)CC)C(C)C)[C@@H](C)CC [(#49) LL-25 (FF)] (H-LLGDFFRKSKEKIGKFFKRIVQRIK-OH; N-terminus assumed)	4	4	–	–	–
CC[C@H](C)[C@H](NC(=O)[C@H](CCCCN)NC(=O)[C@H](CCC(=O)O)NC(=O)[C@H](CCCCN)NC(=O)[C@H](CO)NC(=O)[C@H](CCCCN)NC(=O)[C@H](CCCNC(=N)N)NC(=O)[C@H](Cc1ccccc1)NC(=O)[C@H](Cc1ccccc1)NC(=O)[C@H](CC(=O)O)NC(=O)CN)C(=O)NCC(=O)N[C@@H](CCCCN)C(=O)N[C@@H](Cc1ccccc1)C(=O)N[C@@H](Cc1ccccc1)C(=O)N[C@@H](CCCCN)C(=O)N[C@@H](CCCNC(=N)N)C(=O)N[C@H](C(=O)N[C@H](C(=O)N[C@@H](CCC(N)=O)C(=O)N[C@@H](CCCNC(=N)N)C(=O)N[C@H](C(=O)N[C@@H](CCCCN)C(=O)O)[C@@H](C)CC)C(C)C)[C@@H](C)CC [(#53) GD-23 (FF)] (H-GDFFRKSKEKIGKFFKRIVQRIK-OH; N-terminus and C-terminus assumed)	16	16	–	–	–
CC[C@H](C)[C@H](NC(=O)[C@H](CCCNC(=N)N)NC(=O)[C@H](CCC(N)=O)NC(=O)[C@@H](NC(=O)[C@@H](NC(=O)[C@H](CCCNC(=N)N)NC(=O)[C@@H](N)CCCCN)[C@@H](C)CC)C(C)C)C(=O)N[C@@H](CCCCN)C(=O)N[C@@H](CC(=O)O)C(=O)N[C@@H](Cc1ccccc1)C(=O)N[C@@H](CC(C)C)C(=O)N[C@@H](CCCNC(=N)N)C(=O)O [(#10) KR-12] (H-KRIVQRIKDFLR-OH)	–	–	> 50	–	–
CC[C@H](C)[C@H](NC(=O)[C@H](CCCCN)NC(=O)[C@H](CCC(=O)O)NC(=O)[C@H](CCCCN)NC(=O)[C@H](CO)NC(=O)[C@H](CCCCN)NC(=O)[C@H](CCCNC(=N)N)NC(=O)[C@H](Cc1ccccc1)NC(=O)[C@H](Cc1ccccc1)NC(=O)[C@H](CC(=O)O)NC(=O)CN)C(=O)NCC(=O)N[C@@H](CCCCN)C(=O)N[C@@H](CCC(=O)O)C(=O)N[C@@H](Cc1ccccc1)C(=O)N[C@@H](CCCCN)C(=O)N[C@@H](CCCNC(=N)N)C(=O)N[C@H](C(=O)N[C@H](C(=O)N[C@@H](CCC(N)=O)C(=O)N[C@@H](CCCNC(=N)N)C(=O)N[C@H](C(=O)N[C@@H](CCCCN)C(=O)O)[C@@H](C)CC)C(C)C)[C@@H](C)CC [(#4) GD-23] (H-GDFFRKSKEKIGKEFKRIVQRIK-OH; N-terminus and C-terminus assumed)	32	32	–	64	–
Colistin [reference compound]	–	–	–	512	Fold Δ = (Hemo/MIC of compound) / (Hemo/MIC of LL-37) (defibrinated sheep blood; Figure 2B): 256; Hemo/MIC = (< 20% Hemo) / MIC Ec (defibrinated sheep blood; Figure 2B): 64; Hemo/MIC = (< 20% Hemo) / MIC Ec (defibrinated sheep blood; Figure 4B): 128
CC[C@H](C)[C@H](NC(=O)[C@H](CCCNC(=N)N)NC(=O)[C@H](CCC(N)=O)NC(=O)[C@@H](NC(=O)[C@@H](NC(=O)[C@H](CCCNC(=N)N)NC(=O)[C@H](CCCCN)NC(=O)[C@H](Cc1ccccc1)NC(=O)[C@@H](N)Cc1ccccc1)[C@@H](C)CC)C(C)C)C(=O)N[C@@H](CCCCN)C(=O)N[C@@H](CC(=O)O)C(=O)N[C@@H](Cc1ccccc1)C(=O)N[C@@H](CC(C)C)C(=O)N[C@@H](CCCNC(=N)N)C(=O)O [(#18) FF-14] (H-FFKRIVQRIKDFLR-OH)	–	–	3.1	–	–
